Measurements as given in patent US7871635B2, “Use of compound that inactivates protein kinase A in a composition containing a cosmetically acceptable medium for lightening the skin” (Societe d'Exploitation de Produits pour les Industries …, priority 2002, dated 2011).

Legend:
MC1R receptors = molecular target: T1, MC1R receptors (Mus musculus, UniProt Q01727); assay: Affinity study on MC1R receptors ([125I]NDP-α-MSH binding); settings: for Activity relative to the control (percentage of specific binding): [125I]NDP-α-MSH 0.05 nM, 90 minutes at 22° C.; for inhibition at 100 µg/mL / inhibition at 1000 µg/mL: read-out: Inhibition of specific binding by the test products; for displacement of the specific binding of the ligand [125I]NDP-α-MSH: at the test concentrations (0.1 mg/ml and 1 mg/ml)
T1 construct: isolated from cell membranes of mouse melanocytes of the B16/F1 line; endogenous in cells; host or cells: B16/F1 mouse melanocyte (melanoma) cell membranes
T1 sequence (Q01727 whole entry): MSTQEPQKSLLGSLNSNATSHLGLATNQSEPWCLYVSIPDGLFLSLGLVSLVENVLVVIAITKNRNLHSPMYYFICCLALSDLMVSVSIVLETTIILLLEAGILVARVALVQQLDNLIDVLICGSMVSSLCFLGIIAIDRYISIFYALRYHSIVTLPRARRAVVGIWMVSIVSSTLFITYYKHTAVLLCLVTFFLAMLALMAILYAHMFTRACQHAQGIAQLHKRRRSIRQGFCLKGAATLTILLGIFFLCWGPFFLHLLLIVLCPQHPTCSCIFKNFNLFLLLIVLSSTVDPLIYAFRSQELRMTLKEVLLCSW
Protocol: MC1R receptors are isolated from cell membranes of mouse melanocytes of the B16/F1 line via the method described in: Siegrist W., Oestreicher M., Stutz M., Girard J. and […]., 8, 1988, 323-343”. […] Sodium hydroxide has no effect on the parameter studied. The MC1R receptors are incubated, in the presence or absence of these products, with an iodine-125 labeled radioactive ligand, the […]-α-melanocyte […] hormone [^125I]NDP-α-MSH at a concentration of 0.05 nM, for 90 minutes at 22° C. Control cultures are incubated, in the absence of product, and in the presence of the radioactive ligand. Each test is performed in triplicate. After incubation for 90 minutes, the cell membranes are rapidly filtered and the filters are washed several times with cold buffer. The amount of radioactive ligand bound to the MC1R receptors is measured using a scintillation counter (Topcount, Packard). The results given in the table below are the means of the three tests performed for each of the products. They are expressed as a percentage of specific binding relative to the control group and as a percentage of inhibition of this binding.

Protein kinase A = assay: Study of protein kinase A activity (phosphorylation of histone H1); type: biochemical, bovine; settings: 1 mg/ml; for Enzymatic activity relative to the control (protein kinase A): cAMP 3 μM, histone H1 200 μg/ml, 20 minutes at 30° C.
Protocol: The influence of N-undecylenoylphenylalanine, kojic acid and arbutin on the phosphorylation of […] with protein kinase A (PK A) was compared. Protein kinase A is extracted from bovine brains via the method described in: “[…]., Sano M., Hayashi K., Inoue T., Naito […]. Biol. Chem., 265, 1990, 5267-5272”. […] Sodium hydroxide has no effect on the parameter studied. […] Control cultures are incubated, in the absence of product, and in the presence of radioactive ATP and histone H1. Each test is performed in triplicate. […] The results given in the table below are the means of the three tests performed for each of the products. They are expressed as a percentage of enzymatic activity relative to the control group and as a percentage of inhibition.

tyrosinase = assay: Study of phosphorylated tyrosinase activity (L-tyrosine to dopaquinone, 490 nm); type: biochemical, fungi; settings: tyrosinase 66.66 IU/ml, tyrosine 0.2 mM, 10 minutes at 37° C.
Protocol: The tyrosinase used is a commercial product extracted from fungi. […] Sodium hydroxide has no effect on the parameter studied. […] Control cultures are incubated, in the absence of product, and in the presence of tyrosinase and L-tyrosine. Each test is performed in triplicate. After incubation for 10 minutes, the amount of dopaquinone […] formed is measured using a spectrophotometer at 490 nm. The results given in the table below are the means of the three tests performed for each of the products. They are expressed as IU/l of tyrosinase activity and as a percentage of inhibition of the enzymatic activity relative to the control.

endogenous tyrosinase = assay: Phosphorylated tyrosinase activity in B16/F1 melanocyte lysates; type: cell-based, mouse; settings: 72 hours; for Tyrosinase activity: control 9.8 ± 0.3 IU/ml
Protocol: Mouse melanocytes of the B16/F1 line are inoculated in 96-well culture plates at a density of 1500 cells/well. The cells are cultured in a culture medium (MCM medium) at 37° C. under a humid atmosphere containing 5% CO2. The cells are used at 60% of confluence, i.e. 4 days after inoculation.
The MCM medium has the following composition: DMEM medium (Dulbecco's Modified Eagle's Medium) containing 4.5 g/l of glucose supplemented with L-glutamine (2 mM), penicillin (50 IU/ml), streptomycin (50 μg/ml) and fetal calf serum (10% v/v).
N-Undecylenoylphenylalanine is diluted to 4 mg/ml in decinormal aqueous sodium hydroxide solution. […]
The melanocyte cultures are incubated in the presence of the test product or of the reference products for 72 hours at 37° C., under a humid atmosphere containing 5% CO2.
Control cultures are incubated, in the absence of product, in the MCM medium. These control cultures are prepared on each culture plate.
Each test is performed six times.
After incubation for 72 hours, the second portion of the cell carpet (n=3) is rinsed with PBS. The cells are lyzed with Triton™ X100 at a concentration of 0.1% (w/v) for 30 minutes at room temperature. The activity of the endogenous tyrosinase is evaluated by adding 0.1% (w/v) of L-dopa, followed by incubation for 3 hours at 37° C. in the absence of air and light. The dopaquinone formed by the reaction between the tyrosinase and the L-dopa is measured by spectrophotometry at 450 nm. A calibration range of purified tyrosinase is prepared in parallel.
The results are expressed as IU/ml of tyrosinase activity and as a percentage of inhibition relative to the control group.

[1] = tested on: Pigmented human epidermides (phototype IV); assay: Intracellular melanin content in reconstructed human epidermides; type: cell-based; settings: topical, 4 days; for Intracellular melanin: control 347 ± 2 μg/ml
Protocol: Pigmented human epidermides (phototype IV) supplied by Skinethic, of 0.63 cm^2, are reconstructed from a coculture of normal human keratinocytes (skin of the forearm, donor, 2nd passage) and from normal human melanocytes (skin of the forearm, donor of phototype IV, 3rd passage). The keratinocyte/melanocyte ratio is 10:1. The cocultures are inoculated onto inert polycarbonate filters. They are cultured for 10 days in the medium supplied by Skinethic, consisting of MCDB 153 medium supplemented with 5 μg/ml of insulin, 1.5 mM of calcium and growth factors. […] The epidermides are cultured in 6-well plates containing 1 ml of the medium described above. […] The application is performed every day for 4 consecutive days. The incubation medium of the reconstructed epidermides is renewed every day for 4 consecutive days. Control epidermides are treated with a formulation free of active principle. Each test is performed in duplicate. […] Dermatol., 105, 1995, 361-366. The samples are centrifuged for 10 minutes at 10 000 rpm. The extracted intracellular […] measured by spectrophotometry at 500 nm. A melanin calibration range is prepared in parallel. The results are expressed as […] of intracellular melanin and as a percentage of inhibition relative to the control group.

In the case of `OC[C@H]1O[C@@H](Oc2ccc(O)cc2)[C@H](O)[C@@H](O)[C@@H]1O` [Arbutin, arbutin], the “Activity relative to the control (percentage of specific binding)” value (MC1R receptors; at 0.1 mg/ml) is reported as 100.80 ± 0.55%, the inhibition at 100 µg/mL (MC1R receptors; at 0.1 mg/ml) is reported as 0% and the “Activity relative to the control (percentage of specific binding)” value (MC1R receptors; at 1 mg/ml) is reported as 96.30 ± 4.16%. For the same compound, the inhibition at 1000 µg/mL (MC1R receptors; at 1 mg/ml) was 3.7%, the “displacement of the specific binding of the ligand [125I]NDP-α-MSH” value (MC1R receptors) was “neither arbutin nor kojic acid, which are the reference depigmenting compounds, displaces the specific binding” and the “Inhibition of protein kinase A activity” value (Protein kinase A) was 9.1%. For the same compound, the “Enzymatic activity relative to the control (protein kinase A)” value (Protein kinase A) was 90.9 ± 8.4%, the “Percentage of inhibition of tyrosinase activity with the test products relative to the control” value (tyrosinase; at 0.1 mg/ml) was 73% and the “Percentage of inhibition of tyrosinase activity with the test products relative to the control” value (tyrosinase; at 1 mg/ml) was 80%. The “Inhibition of tyrosinase activity” value (endogenous tyrosinase; at 40 μg/ml) was 23%, the Tyrosinase activity (endogenous tyrosinase; at 40 μg/ml) was 7.6 ± 1.1 IU/ml and the Intracellular melanin ([1]; formulated at 1% (w/v)) was 242 ± 46 µg/mL. For the same compound, the Intracellular melanin ([1]; formulated at 3% (w/v)) was 263 ± 16 µg/mL.
`Oc1ccc(O)cc1` [Hydroquinone, hydroquinone] was tested, and the “Percentage of inhibition of tyrosinase activity with the test products relative to the control” value (tyrosinase; at 0.1 mg/ml) was 78%, the “Percentage of inhibition of tyrosinase activity with the test products relative to the control” value (tyrosinase; at 1 mg/ml) was 80% and the “Inhibition of tyrosinase activity” value (endogenous tyrosinase; at 5 μg/ml) was 69%. It also gave a Tyrosinase activity (endogenous tyrosinase; at 5 μg/ml) of 3.0 ± 0.3 IU/ml and an Intracellular melanin ([1]; formulated at 0.1% (w/v)) of 317 ± 0 µg/mL.
With `O=c1cc(CO)occ1O` [Kojic acid, kojic acid] the inhibition at 100 µg/mL (MC1R receptors; at 0.1 mg/ml) was 0%, the inhibition at 1000 µg/mL (MC1R receptors; at 1 mg/ml) was 0% and the “displacement of the specific binding of the ligand [125I]NDP-α-MSH” value (MC1R receptors) was “neither arbutin nor kojic acid, which are the reference depigmenting compounds, displaces the specific binding”. The “Inhibition of protein kinase A activity” value (Protein kinase A) was 0%, the Intracellular melanin ([1]; formulated at 1% (w/v)) was 273 ± 2 µg/mL and the Intracellular melanin ([1]; formulated at 3% (w/v)) was 234 ± 19 µg/mL.
`C=CCCCCCCCCC(=O)NC(Cc1ccccc1)C(=O)O` (centres unmarked) [N-Undecylenoylphenylalanine, N-(ω-undecylenoyl)phenylalanine] was tested, and the “Inhibition of specific binding by the test products” value (MC1R receptors; at 0.1 mg/ml) was 42.3%, the “Activity relative to the control (percentage of specific binding)” value (MC1R receptors; at 0.1 mg/ml) was 57.70 ± 2.38% and the inhibition at 100 µg/mL (MC1R receptors; at 0.1 mg/ml) was 42%. The “Inhibition of specific binding by the test products” value (MC1R receptors; at 1 mg/ml) was 95.8%, the “Activity relative to the control (percentage of specific binding)” value (MC1R receptors; at 1 mg/ml) was 4.20 ± 0.86% and the inhibition at 1000 µg/mL (MC1R receptors; at 1 mg/ml) was 96%. The “Inhibition of protein kinase A activity” value (Protein kinase A) was 100%, the “Enzymatic activity relative to the control (protein kinase A)” value (Protein kinase A) was −0.4 ± 0.3% and the “Inhibition of protein kinase A activity” value (Protein kinase A; listed as N-undecylenoylphenylalanine) was “totally inhibits”. The “Percentage of inhibition of tyrosinase activity with the test products relative to the control” value (tyrosinase; at 0.1 mg/ml) was 80%, the “Percentage of inhibition of tyrosinase activity with the test products relative to the control” value (tyrosinase; at 1 mg/ml) was 100% and the “Inhibition of tyrosinase activity” value (endogenous tyrosinase; at 40 μg/ml) was 67%. The Tyrosinase activity (endogenous tyrosinase; at 40 μg/ml) was 3.2 ± 0.6 IU/ml, the Intracellular melanin ([1]; formulated at 1% (w/v)) was 264 ± 9 µg/mL and the Inhibition of the amount of intracellular melanin ([1]; formulated at 3% (w/v)) was 24%. For the same compound, the Intracellular melanin ([1]; formulated at 3% (w/v)) was 264 ± 11 µg/mL and the “Inhibition of the amount of intracellular melanin” value ([1]; formulated at 3% (w/v), listed as N-undecylenoylphenylalanine) was 24%.
